Source: US20250215039A1, “NUCLEOSIDES FOR TREATING CANCER” (PRIMEFOUR THERAPEUTICS, INC., priority 2022, published 2025)
Where two headings read alike, the source gives them in different places.

Tests used:
cancer cell lines = experiment: Cancer cell proliferation activity (CellTiterGlo, 72 h); format: cell-based; settings: for IC50: 72 h, read-out: IC50 cell proliferation
Summary of the method: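 Cells seeded overnight at 37 °C, then dosed with compound at 0.1% final DMSO and incubated 72 h at 37 °C (5% or 10% CO2 by medium).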

[1] = target: human cytidine deaminase (CDA) (Homo sapiens, UniProt P32320); experiment: Metabolism by human cytidine deaminase (CDA), substrate absorbance at 290 nm
Chain of human cytidine deaminase (CDA) (P32320 whole entry): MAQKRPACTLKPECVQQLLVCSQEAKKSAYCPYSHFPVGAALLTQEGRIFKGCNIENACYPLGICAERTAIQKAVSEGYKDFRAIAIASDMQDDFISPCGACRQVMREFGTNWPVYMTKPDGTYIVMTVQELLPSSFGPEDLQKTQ
Description: Transfer 7.2 μl of each of the substrate DMSO stock in step 2 into a 500 μl 96-Well V-bottom Microplate, clear SBS footprint, cat #P-96-450V-C
Add 352.8 μl assay buffer to the wells
For deaminated product compounds mix 4 μl product with 196 μl assay buffer
This was incubated at 37° C. for 1 h. 200 μl of this mixture was transferred into the assay plate to serve as the product control.
Product+buffer: mix 80 ul of the 2.5× intermediate product stocks (from step 3) with 120 ul assay buffer into product control (no enzyme) wells
Incubate the plate alongside the 20 nM CDA enzyme intermediate stock at 37° C. to temperature equilibrate reagents
Add 120 μl of the 20 nM enzyme mix into the Substrate+CDA wells and start reading at 290 nm every 30 s for about 60 min
50 and 200 uM substrate and product
In 100 mM Tris, pH 7.5, 100 mM KCl, 0.8% carryover DMSO
5 min incubation at 37° C.
Absorbance at 290 nm every 30 s at 37° C. for 1 h using FlexStation 3
Convert A290 to concentration of substrate remaining at time t after enzyme addition:
[formula] • where: • St=absorbance reading of: substrate+CDA wells at time t • So=Average absorbance reading of: substrate+buffer wells • Po=Average absorbance reading of: product+buffer wells • [S]t=initial substrate concentration • Use GraphPad to plot [substrate] against time to calculate initial velocity or slope (μMs^−1) i.e. the linear range of each curve • Express rate in s^−1 by dividing initial velocity by the total enzyme concentration.
Plot rate against [substrate] and fit data to standard Michaelis Menten equation to obtain kcat and KM parameters.

Structure (SMILES): Nc1nc(=O)n([C@H]2C[C@H](O)[C@](CO)(CF)O2)cc1F [Cpd. No. 197, 4-amino-5-fluoro-1-((2R,4S,5R)-5-(fluoromethyl)-4-hydroxy-5-(hydroxymethyl)tetrahydrofuran-2-yl)pyrimidin-2(1H)-one]
- IC50 (cancer cell lines; 5637 (bladder)): 4 nM
- IC50 (cancer cell lines; CLS439 (bladder)): > 50000 nM
- IC50 (cancer cell lines; HS729 (muscle)): > 50000 nM
- IC50 (cancer cell lines; J82 (bladder)): 216 nM
- IC50 (cancer cell lines; JAR (placenta)): > 50000 nM
- IC50 (cancer cell lines; MT3 (breast)): 16 nM
- IC50 (cancer cell lines; PANCI (pancreas)): > 50000 nM
- IC50 (cancer cell lines; PC3 (prostate)): > 50000 nM
- IC50 (cancer cell lines; RD (muscle)): 66 nM
- IC50 (cancer cell lines; T24 (bladder)): 98 nM
- IC50 (cancer cell lines; Homo sapiens, 22Rv1, 72 h, 22RV1 (prostate)): 84 nM
- IC50 (cancer cell lines; Homo sapiens, 786-0, 72 h, 786O (kidney)): > 50000 nM
- IC50 (cancer cell lines; Homo sapiens, A204, 72 h, A204 (muscle)): 716 nM
- IC50 (cancer cell lines; Homo sapiens, A549, 72 h, A549 (lung)): 75 nM
- IC50 (cancer cell lines; Homo sapiens, A673, 72 h, A673 (bone)): 110 nM
- IC50 (cancer cell lines; Homo sapiens, A2780, 72 h, A2780 (ovary)): 213 nM
- IC50 (cancer cell lines; Homo sapiens, A-375, 72 h, A375 (skin)): 183 nM
- IC50 (cancer cell lines; Homo sapiens, A-431, 72 h, A431 (skin)): 2 nM
- IC50 (cancer cell lines; Homo sapiens, ACHN, ACHN (kidney)): 12 nM
- IC50 (cancer cell lines; Homo sapiens, ASPC1, 72 h, ASPC1 (pancreas)): 11 nM
- IC50 (cancer cell lines; Homo sapiens, BT-20, 72 h, BT20 (breast)): > 50000 nM
- IC50 (cancer cell lines; Homo sapiens, BXPC-3, 72 h, BXPC3 (pancreas)): 0.4 nM
- IC50 (cancer cell lines; Homo sapiens, C-33-A, C33A (endometrial)): 47 nM
- IC50 (cancer cell lines; Homo sapiens, CAKI-1, 72 h, CAKI1 (kidney)): > 50000 nM
- IC50 (cancer cell lines; Homo sapiens, COLO 205, 72 h, COLO205 (colon)): 18 nM
- IC50 (cancer cell lines; Homo sapiens, COLO-678, 72 h, COLO678 (colon)): > 50000 nM
- IC50 (cancer cell lines; Homo sapiens, Ca-Ski, CASKI (endometrial)): > 50000 nM
- IC50 (cancer cell lines; Homo sapiens, Caco-2, 72 h, CACO2 (colon)): > 50000 nM
- IC50 (cancer cell lines; Homo sapiens, Calu-6, 72 h, CALU6 (lung)): 76 nM
- IC50 (cancer cell lines; Homo sapiens, DLD-1, 72 h, DLD1 (colon)): 8970 nM
- IC50 (cancer cell lines; Homo sapiens, DU-145, 72 h, DU145 (prostate)): 425 nM
- IC50 (cancer cell lines; Homo sapiens, EFO-21, 72 h, EFO21 (ovary)): > 50000 nM
- IC50 (cancer cell lines; Homo sapiens, EJ-28, 72 h, EJ28 (bladder)): 66 nM
- IC50 (cancer cell lines; Homo sapiens, Granta-519, 72 h, GRANTA-519 (hematological)): 10 nM
- IC50 (cancer cell lines; Homo sapiens, HCT-15, 72 h, HCT15 (colon)): 1380 nM
- IC50 (cancer cell lines; Homo sapiens, HCT-116, 72 h, HCT116 (colon)): 1110 nM
- IC50 (cancer cell lines; Homo sapiens, HEK293, 72 h, HEK293 (kidney)): > 50000 nM
- IC50 (cancer cell lines; Homo sapiens, HL-60, 72 h, HL-60 (hematological)): 247 nM
- IC50 (cancer cell lines; Homo sapiens, HT-29, 72 h, HT29 (colon)): 60 nM
- IC50 (cancer cell lines; Homo sapiens, HT-1080, 72 h, HT1080 (connective tissue)): 46 nM
- IC50 (cancer cell lines; Homo sapiens, HeLa, HELA (endometrial)): > 50000 nM
- IC50 (cancer cell lines; Homo sapiens, HepG2, 72 h, HEPG2 (liver)): 89 nM
- IC50 (cancer cell lines; Homo sapiens, Hs-578T, HS578T (breast)): > 50000 nM
- IC50 (cancer cell lines; Homo sapiens, IGROV-1, 72 h, IGROV1 (ovary)): 1590 nM
- IC50 (cancer cell lines; Homo sapiens, IMR-90, 72 h, IMR90 (lung)): > 50000 nM
- IC50 (cancer cell lines; Homo sapiens, JEG-3, 72 h, JEG3 (placenta)): 37 nM
- IC50 (cancer cell lines; Homo sapiens, JIMT-1, 72 h, JIMT1 (breast)): > 50000 nM
- IC50 (cancer cell lines; Homo sapiens, K562, 72 h, K-562 (hematological)): > 50000 nM
- IC50 (cancer cell lines; Homo sapiens, Kasumi 1, 72 h, KASUMI-1 (hematological)): 76 nM
- IC50 (cancer cell lines; Homo sapiens, L-363, 72 h, L-363 (hematological)): > 50000 nM
- IC50 (cancer cell lines; Homo sapiens, LoVo, LOVO (colon)): 6 nM
- IC50 (cancer cell lines; Homo sapiens, MCF7, 72 h, MCF7 (breast)): 181 nM
- IC50 (cancer cell lines; Homo sapiens, MDA-MB-231, 72 h, MDAMB231 (breast)): > 50000 nM
- IC50 (cancer cell lines; Homo sapiens, MDA-MB-435, 72 h, MDAMB435 (skin)): 924 nM
- IC50 (cancer cell lines; Homo sapiens, MDA-MB-436, 72 h, MDAMB436 (breast)): 41 nM
- IC50 (cancer cell lines; Homo sapiens, MDA-MB-468, 72 h, MDAMB468 (breast)): > 50000 nM
- IC50 (cancer cell lines; Homo sapiens, MG-63, 72 h, MG63 (bone)): 361 nM
- IC50 (cancer cell lines; Homo sapiens, MHH-ES-1, 72 h, MHHES1 (bone)): 2560 nM
- IC50 (cancer cell lines; Homo sapiens, MIA PaCa-2, 72 h, MIAPACA2 (pancreas)): 904 nM
- IC50 (cancer cell lines; Homo sapiens, MINO, MINO (hematological)): 2 nM
- IC50 (cancer cell lines; Homo sapiens, MV4-11, 72 h, MV4-11 (hematological)): 44 nM
- IC50 (cancer cell lines; Homo sapiens, NCI-H23, 72 h, NCI-H23 (lung)): 334 nM
- IC50 (cancer cell lines; Homo sapiens, NCI-H82, 72 h, NCIH82 (lung)): 87 nM
- IC50 (cancer cell lines; Homo sapiens, NCI-H292, 72 h, NCIH292 (lung)): 114 nM
- IC50 (cancer cell lines; Homo sapiens, NCI-H460, 72 h, NCIH460 (lung)): 61 nM
- IC50 (cancer cell lines; Homo sapiens, OVCAR-3, 72 h, OVCAR3 (ovary)): > 50000 nM
- IC50 (cancer cell lines; Homo sapiens, OVCAR-4, 72 h, OVCAR4 (ovary)): > 50000 nM
- IC50 (cancer cell lines; Homo sapiens, PLC-PRF-5, 72 h, PLCPRF5 (liver)): > 50000 nM
- IC50 (cancer cell lines; Homo sapiens, Panc1005, 72 h, PANC1005 (pancreas)): > 50000 nM
- IC50 (cancer cell lines; Homo sapiens, Ramos, RAMOS (hematological)): 292 nM
- IC50 (cancer cell lines; Homo sapiens, SAOS-2, 72 h, SAOS2 (bone)): 6 nM
- IC50 (cancer cell lines; Homo sapiens, SF-268, 72 h, SF268 (brain)): 187 nM
- IC50 (cancer cell lines; Homo sapiens, SF-295, 72 h, SF295 (brain)): > 50000 nM
- IC50 (cancer cell lines; Homo sapiens, SK-BR-3, 72 h, SKBR3 (breast)): 5 nM
- IC50 (cancer cell lines; Homo sapiens, SK-HEP1, 72 h, SKHEP1 (liver)): 1320 nM
- IC50 (cancer cell lines; Homo sapiens, SK-LMS-1, 72 h, SKLMS1 (uterus)): 298 nM
- IC50 (cancer cell lines; Homo sapiens, SK-MEL-5, 72 h, SKMEL5 (skin; SKMELS [sic] in Table 9E)): > 50000 nM
- IC50 (cancer cell lines; Homo sapiens, SK-MEL-28, 72 h, SKMEL28 (skin)): > 50000 nM
- IC50 (cancer cell lines; Homo sapiens, SK-N-AS, SKNAS (brain)): > 50000 nM
- IC50 (cancer cell lines; Homo sapiens, SK-N-SH, SKNSH (brain)): > 50000 nM
- IC50 (cancer cell lines; Homo sapiens, SK-OV-3, 72 h, SKOV3 (ovary)): 71 nM
- IC50 (cancer cell lines; Homo sapiens, SNB-75, 72 h, SNB75 (brain)): > 50000 nM
- IC50 (cancer cell lines; Homo sapiens, SU-DHL10, 72 h, SU-DHL-10 (hematological)): 1160 nM
- IC50 (cancer cell lines; Homo sapiens, SU-DHL-6, 72 h, SU-DHL-6 (hematological)): 143 nM
- IC50 (cancer cell lines; Homo sapiens, SW-620, 72 h, SW620 (colon)): 82 nM
- IC50 (cancer cell lines; Homo sapiens, TE-671, 72 h, TE671 (muscle)): 82 nM
- IC50 (cancer cell lines; Homo sapiens, THP-1, 72 h, THP-1 (hematological)): 131 nM
- IC50 (cancer cell lines; Homo sapiens, U2OS, U20S (bone; U2OS in Table 9E)): > 50000 nM
- IC50 (cancer cell lines; Homo sapiens, U-87 MG, U87MG (brain)): > 50000 nM
- IC50 (cancer cell lines; Homo sapiens, UMUC3, 72 h, UMUC3 (bladder)): 228 nM
- IC50 (cancer cell lines; Homo sapiens, UO-31, 72 h, UO31 (kidney)): > 50000 nM
- IC50 (cancer cell lines; Homo sapiens, WSU-NHL, WSU-NHL (hematological)): 448 nM
- IC50 (cancer cell lines; NCI-H358M, NCIH358M (lung)): 19 nM
- IC50 (cancer cell lines; PBMC, PBMC (hematological)): 3020 nM
- IC50 (cancer cell lines; RD-ES, RDES (bone)): 10400 nM
- cytotoxicity against a panel of cell lines (waterfall plot) (cancer cell lines; panel of cancer and non-cancer cell lines, figure legends FIG. 1-3): selectively cytotoxic in cancer cell lines with high DDR activity
- metabolism (deamination) by human CDA (line graph) ([1]; 12 nM CDA, 50 and 200 uM substrate, 37° C., pH 7.5, figure legends FIG. 4-9): not metabolized
- substrate conversion by CDA (Inactive) ([1]; rate of substrate conversion at 200 μM, could not be fitted): Inactive
